# Laboratory results reported in patent US7396837B2, “Antitumoral analogs of lamellarins” (Pharma Mar, S.A.U., priority 2002, dated 2008).
# How the values were obtained:
# Format in all cases: cell-based
# [1] = system: LoVo; test: SRB colorimetric cell growth inhibition assay, LoVo; conditions: LOVO
# How it was run: (§1)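 Human tumour cells continuously exposed to compound in 96-well culture; growth and viability quantified colorimetrically by sulforhodamine B staining. Mean ± SD from triplicate wells; GI (growth inhibition), TGI (total growth inhibition, cytostatic) and LC (cell killing, cytotoxic) parameters derived.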
# [2] = system: LoVo-Dox; test: SRB colorimetric cell growth inhibition assay, LoVo-Dox (MDR); conditions: LOVO-DOX
# How it was run: as §1
# [3] = system: PANC-1; test: SRB colorimetric cell growth inhibition assay, PANC-1; conditions: PANC-1
# How it was run: as §1
# [4] = system: SK-MEL-28; test: SRB colorimetric cell growth inhibition assay, SK-MEL-28; conditions: MEL-28
# How it was run: as §1
# [5] = system: K-562; test: SRB colorimetric cell growth inhibition assay, K-562
# How it was run: as §1
# [6] = system: LNCaP; test: SRB colorimetric cell growth inhibition assay, LNCaP; conditions: LN-caP
# How it was run: as §1
# [7] = system: HT-29; test: SRB colorimetric cell growth inhibition assay, HT-29; conditions: HT-29
# How it was run: as §1
# [8] = system: IGROV-ET; test: SRB colorimetric cell growth inhibition assay, IGROV-ET (ET-743 resistant); conditions: IGROV-ET
# How it was run: as §1
# [9] = system: DU-145; test: SRB colorimetric cell growth inhibition assay, DU-145; conditions: DU-145
# How it was run: as §1
# [10] = system: IGROV; test: SRB colorimetric cell growth inhibition assay, IGROV; conditions: IGROV
# How it was run: as §1
# [11] = system: A-549; test: SRB colorimetric cell growth inhibition assay, A-549; conditions: A-549
# How it was run: as §1
# [12] = system: HeLa-APL; test: SRB colorimetric cell growth inhibition assay, HeLa-APL (aplidine resistant); conditions: HELA-APL
# How it was run: as §1
# [13] = system: SK-BR-3; test: SRB colorimetric cell growth inhibition assay, SK-BR-3; conditions: SK-BR-3
# How it was run: as §1
# [14] = system: HeLa; test: SRB colorimetric cell growth inhibition assay, HeLa; conditions: HELA
# How it was run: as §1
# [15] = total growth inhibition (cytostatic effect)
smiles,measurement,setting,value
COc1cc(-c2c3c4cc(OC)c(OC(=O)[C@H](C)N)cc4oc(=O)c3n3ccc4c(OC(=O)[C@H](C)N)c(OC)c(OC)cc4c23)ccc1OC(=O)[C@H](C)N [Compound 16],GI50,"[1]; GI=growth inhibition, read-out: GI50 LOVO",196 nM
same,CC50,"[1]; cell killing (cytotoxic effect), read-out: LC50 LOVO",612 nM
same,TGI LOVO,[1]; [15],3.47E−07 Molar
same,GI50,"[2]; Homo sapiens, GI=growth inhibition, read-out: GI50 LOVO-DOX",420 nM
same,CC50,"[2]; cell killing (cytotoxic effect), read-out: LC50 LOVO-DOX",4420 nM
same,TGI LOVO-DOX,[2]; [15],1.03E−06 Molar
same,GI50,"[3]; GI=growth inhibition, read-out: GI50 PANC-1",241 nM
same,CC50,"[3]; cell killing (cytotoxic effect), read-out: LC50 PANC-1",3340 nM
same,TGI PANC-1,[3]; [15],7.56E−07 Molar
same,GI50,"[4]; GI=growth inhibition, read-out: GI50 MEL-28",138 nM
same,CC50,"[4]; cell killing (cytotoxic effect), read-out: LC50 MEL-28",669 nM
same,TGI MEL-28,[4]; [15],3.04E−07 Molar
same,GI50,"[5]; Homo sapiens, K562, K-562, GI=growth inhibition, read-out: GI50 K-562",183 nM
same,CC50,"[5]; K-562, cell killing (cytotoxic effect), read-out: LC50 K-562",2230 nM
same,TGI K-562,"[5]; K-562, total growth inhibition (cytostatic effect)",4.45E−07 Molar
same,GI50,"[6]; GI=growth inhibition, read-out: GI50 LN-caP",131 nM
same,CC50,"[6]; cell killing (cytotoxic effect), read-out: LC50 LN-caP",534 nM
same,TGI LN-caP,[6]; [15],2.65E−07 Molar
same,GI50,"[7]; GI=growth inhibition, read-out: GI50 HT-29",411 nM
same,CC50,"[7]; cell killing (cytotoxic effect), read-out: LC50 HT-29",5000 nM
same,TGI HT-29,[7]; [15],9.31E−07 Molar
same,GI50,"[8]; GI=growth inhibition, read-out: GI50 IGROV-ET",278 nM
same,CC50,"[8]; cell killing (cytotoxic effect), read-out: LC50 IGROV-ET",897 nM
same,TGI IGROV-ET,[8]; [15],5.00E−07 Molar
same,GI50,"[9]; GI=growth inhibition, read-out: GI50 DU-145",52.7 nM
same,CC50,"[9]; cell killing (cytotoxic effect), read-out: LC50 DU-145",2800 nM
same,TGI DU-145,[9]; [15],2.98E−07 Molar
same,GI50,"[10]; GI=growth inhibition, read-out: GI50 IGROV",226 nM
same,CC50,"[10]; cell killing (cytotoxic effect), read-out: LC50 IGROV",1590 nM
same,TGI IGROV,[10]; [15],4.78E−07 Molar
same,GI50,"[11]; GI=growth inhibition, read-out: GI50 A-549",178 nM
same,CC50,"[11]; cell killing (cytotoxic effect), read-out: LC50 A-549",3050 nM
same,TGI A-549,[11]; [15],5.02E−07 Molar
same,GI50,"[12]; GI=growth inhibition, read-out: GI50 HELA-APL",229 nM
same,CC50,"[12]; cell killing (cytotoxic effect), read-out: LC50 HELA-APL",2380 nM
same,TGI HELA-APL,[12]; [15],5.20E−07 Molar
same,GI50,"[13]; GI=growth inhibition, read-out: GI50 SK-BR-3",207 nM
same,CC50,"[13]; cell killing (cytotoxic effect), read-out: LC50 SK-BR-3",816 nM
same,TGI SK-BR-3,[13]; [15],4.11E−07 Molar
same,GI50,"[14]; GI=growth inhibition, read-out: GI50 HELA",193 nM
same,CC50,"[14]; cell killing (cytotoxic effect), read-out: LC50 HELA",703 nM
same,TGI HELA,[14]; [15],3.68E−07 Molar
